Measurements reported in patent US10939684B2, “Preparation of sulfonamide-containing antimicrobials and substrate treating compositions of sulfonamide-containing antimicrobials” (NANO SAFE COATINGS INCORPORATED, priority 2015, dated 2021).
“Also recorded” adds a separate entry of the source.

Test system: Arthrobacter spp.
Test: Large-droplet inoculation method, antimicrobial efficacy at solid-air interfaces
Assay type: cell-based
Details: for Average: average of A-C; for A (cfu): replicate A; for B (cfu): replicate B; for C (cfu): replicate C
Excerpt: Large-droplet inoculation method (Ronan E. et al, Biofouling 2013, 29, 1087-1096) Many pathogens are able to remain viable during extended periods of desiccation on inanimate surfaces. Long-term survival of pathogens in the inanimate environment pose a significant risk for infection transmission and contamination in high-risk environments such as hospital rooms or food-processing plants. The large-droplet inoculation method was developed to simulate the deposition of bacterial species onto exposed surfaces and to determine the ability of these cells to survive desiccation.
For these tests, small surface coupons were first coated with the antimicrobial using the method described above. Bacterial test species were grown overnight in a shaking incubator and cultures
were washed twice to replace the growth media with sterile water. 100 μL aliquots of the prepared culture were then inoculated onto multiple coated surfaces and allowed to air-dry within a biological safety cabinet. Drying typically occurred 2-3 hours after inoculation, and surviving cells were enumerated immediately and 24 hours after drying. For enumeration, inoculated coupons were sacrificed in triplicate and placed inside separate tubes containing 5 mL of a 0.9% saline collection liquid. Each coupon was agitated vigorously for 1 minute with a bench-top vortex to transfer cells from the test surface to the collection liquid. Plate counts were then performed on serial dilutions of the collection liquid, and colony counts from triplicate treated surfaces were averaged and compared to colony counts from tests of untreated control surfaces carried out in parallel.
A range of bacterial species were used in these tests. Arthrobacter spp., a gram-positive lab strain originally isolated from indoor air was used in the bulk of the testing, as it is known to be highly resistant to desiccation and therefore was used as a model for desiccation-tolerant pathogens. Efficacy tests were also carried out against, for example, gram-negative Escherichia coli (E. coli) and gram-positive Staphylococcus aureus (S. aureus), since they all contain pathogenic strains and have been implicated in major nosocomial outbreaks. […] The following are the tabulated bacterial reduction data: […]

[1] = treated cotton, 3 hours, load 4.04E+07
[2] = treated cotton, 24 hours, load 4.04E+07
[3] = treated polyethylene, 3 hours, load 2.70E+07
[4] = treated polyethylene, 24 hours, load 2.70E+07
[5] = treated cotton, 3 hours, load 1.28E+08
[6] = treated cotton, 24 hours, load 1.28E+08
[7] = treated cotton, compared to untreated control (FIG. 3, FIG. 4)
[8] = treated cotton, 3 hours, load 6.10E+07
[9] = treated cotton, 24 hours, load 6.10E+07

CO[Si](CCC[N+](C)(C)CCCNS(=O)(=O)c1c(C)cc(C)cc1C)(OC)OC.[Cl-] [Example 3a, N,N-dimethyl-3-(trimethoxysilyl)-N-(3-(2,4,6-trimethylphenylsulfonamido)propyl)propan-1-aminium chloride]
activity against Arthrobacter spp. (in words) (treated cotton, compared to untreated control (FIG. 3, FIG. 4), listed as N,N-dimethyl-3-(trimethoxysilyl)-N-(3-(2,4,6-trimethyl phenylsulfonamido)propyl)): excellent activity | activity against Arthrobacter spp. (in words) (treated cotton, compared to untreated control (FIG. 3, FIG. 4), listed as N,N-dimethyl-3-(trimethoxysilyl)-N-(3-(2,4,6-trimethylphenylsulfonamido)propyl)p): eradicated within three hours | Average [1]: 0.00E+00 cfu | A (cfu) [1]: 0.00E+00 cfu | B (cfu) [1]: 0.00E+00 cfu | C (cfu) [1]: 0.00E+00 cfu | Average [2]: 0.00E+00 cfu | A (cfu) [2]: 0.00E+00 cfu | B (cfu) [2]: 0.00E+00 cfu | C (cfu) [2]: 0.00E+00 cfu

C[N+](C)(CCCNS(=O)(=O)c1cccc2ccccc12)CCCOc1ccc(C(=O)c2ccccc2)cc1.[Br-] [Example 5c, 3-(4-benzoylphenoxy)-N,N-dimethyl-N-(3-(naphthalene-1-sulfonamido)propyl)propan-1-aminium bromide]
activity against Arthrobacter spp. (in words) (treated polyethylene coupons, compared to untreated control (FIG. 5), listed as 3-(4-benzoylphenoxy)-N,N-dimethyl-N-(3-(naphthalene-1-sulfonamido)propyl)propan-): eradicated within three hours | Average [3]: 0.00E+00 cfu | A (cfu) [3]: 0.00E+00 cfu | B (cfu) [3]: 0.00E+00 cfu | C (cfu) [3]: 0.00E+00 cfu | Average [4]: 0.00E+00 cfu | A (cfu) [4]: 0.00E+00 cfu | B (cfu) [4]: 0.00E+00 cfu | C (cfu) [4]: 0.00E+00 cfu

CO[Si](CCC[N+](C)(C)CCCNS(=O)(=O)c1ccc(C)cc1)(OC)OC.[Cl-] [Example 2a, N,N-dimethyl-3-(4-methylphenylsulfonamido)-N-(3-(trimethoxysilyl)propyl) propan-1-aminium chloride]
activity against Arthrobacter spp. (in words) (treated cotton, compared to untreated control (FIG. 3, FIG. 4), listed as N,N-dimethyl-3-(4-methylphenyl sulfonamido)-N-(3-(trimethoxysilyl)propyl)propan-): excellent activity | activity against Arthrobacter spp. (in words) (treated cotton, compared to untreated control (FIG. 3, FIG. 4), listed as N,N-dimethyl-3-(4-methylphenylsulfonamido)-N-(3-(trimethoxysilyl) propyl)propan-): excellent activity | activity against Arthrobacter spp. (in words) (treated cotton, compared to untreated control (FIG. 3, FIG. 4), listed as N,N-dimethyl-3-(4-methylphenylsulfonamido)-N-(3-(trimethoxysilyl)propyl)propan-1): eradicated within three hours | Average [5]: 0.00E+00 cfu | A (cfu) [5]: 0.00E+00 cfu | B (cfu) [5]: 0.00E+00 cfu | C (cfu) [5]: 0.00E+00 cfu | Average [1]: 0.00E+00 cfu | A (cfu) [1]: 0.00E+00 cfu | B (cfu) [1]: 0.00E+00 cfu | C (cfu) [1]: 0.00E+00 cfu | Average [6]: 0.00E+00 cfu | A (cfu) [6]: 0.00E+00 cfu | B (cfu) [6]: 0.00E+00 cfu | C (cfu) [6]: 0.00E+00 cfu | Average [2]: 0.00E+00 cfu | A (cfu) [2]: 0.00E+00 cfu | B (cfu) [2]: 0.00E+00 cfu | C (cfu) [2]: 0.00E+00 cfu

CO[Si](CCC[N+](C)(C)CCCNS(=O)(=O)c1ccccc1)(OC)OC.[Cl-] [Example 1a, N,N-dimethyl-3-(phenylsulfonamido)-N-(3-(trimethoxysilyl)propyl)propan-1-aminium chloride]
activity against Arthrobacter spp. (in words) [7]: eradicated within three hours; also recorded: excellent activity | Average [8]: 0.00E+00 cfu | A (cfu) [8]: 0.00E+00 cfu | B (cfu) [8]: 0.00E+00 cfu | C (cfu) [8]: 0.00E+00 cfu | Average [9]: 0.00E+00 cfu | A (cfu) [9]: 0.00E+00 cfu | B (cfu) [9]: 0.00E+00 cfu | C (cfu) [9]: 0.00E+00 cfu

C[N+](C)(CCCNS(=O)(=O)c1cccc2ccccc12)CCCOc1ccc(C(=O)c2ccccc2)cc1.[Br-] [3-(4-benzoylphenoxy)-N,N-dimethyl-N-(3-(naphthalene-1-sulfonamido)propyl)propan-1-aminium bromide]
activity against Arthrobacter spp. (in words) (treated polyethylene coupons, compared to untreated control (FIG. 5)): excellent activity

CO[Si](CCC[N+](C)(C)CCCNS(=O)(=O)c1cccc2ccccc12)(OC)OC.[Cl-] [Example 5a, N,N-dimethyl-3-(naphthalene-1-sulfonamido)-N-(3-(trimethoxysilyl)propyl)propan-1-aminium chloride]
activity against Arthrobacter spp. (in words) [7]: eradicated within three hours; also recorded: excellent activity | Average [8]: 0.00E+00 cfu | A (cfu) [8]: 0.00E+00 cfu | B (cfu) [8]: 0.00E+00 cfu | C (cfu) [8]: 0.00E+00 cfu | Average [9]: 0.00E+00 cfu | A (cfu) [9]: 0.00E+00 cfu | B (cfu) [9]: 0.00E+00 cfu | C (cfu) [9]: 0.00E+00 cfu

C[N+](C)(CCCNS(=O)(=O)c1ccccc1)CCCOc1ccc(C(=O)c2ccccc2)cc1.[Br-] [Example 1c, 3-(4-benzoylphenoxy)-N,N-dimethyl-N-(3-(phenylsulfonamido)propyl) propan-1-aminium bromide]
activity against Arthrobacter spp. (in words) (treated polyethylene coupons, compared to untreated control (FIG. 5), listed as 3-(4-benzoylphenoxy)-N,N-dimethyl-N-(3-(phenyl sulfonamido)propyl)propan- 1-amin): excellent activity | activity against Arthrobacter spp. (in words) (treated polyethylene coupons, compared to untreated control (FIG. 5), listed as 3-(4-benzoylphenoxy)-N,N-dimethyl-N-(3-(phenylsulfonamido)propyl)propan-1-aminiu): eradicated within three hours | Average [3]: 0.00E+00 cfu | A (cfu) [3]: 0.00E+00 cfu | B (cfu) [3]: 0.00E+00 cfu | C (cfu) [3]: 0.00E+00 cfu | Average [4]: 0.00E+00 cfu | A (cfu) [4]: 0.00E+00 cfu | B (cfu) [4]: 0.00E+00 cfu | C (cfu) [4]: 0.00E+00 cfu
